Measured values: the NIST ThermoML archive (doi:10.1021/je3004645)

Conditions: for electrical conductivity / mass density / viscosity: 101.33 kPa, Liquid; for electrical conductivity: Alternating current cell with electrodes; for mass density: Pycnometric method; for viscosity: Capillary tube (Ostwald / Ubbelohde) method; for Triple point temperature / Glass transition temperature: DTA

CC[n+]1ccc(C)cc1.O=S(=O)([N-]S(=O)(=O)C(F)(F)F)C(F)(F)F
Conditions | Glass transition temperature [°C] | Triple point temperature [K] | electrical conductivity [S/m] | mass density [kg/m3] | viscosity [mPa·s]
– | -74.5 | – | – | – | –
283.15 K | – | – | 0.424 | 1505.2 | –
288.15 K | – | – | 0.525 | 1501 | –
293.15 K | – | – | 0.638 | 1496.1 | –
298.15 K | – | – | 0.763 | 1492 | 32.75
303.15 K | – | – | 0.901 | 1487.7 | 27.31
308.15 K | – | – | 1.05 | 1483 | 23.1
313.15 K | – | – | 1.21 | 1478.3 | 19.69
318.15 K | – | – | 1.38 | 1473.4 | 16.95
323.15 K | – | – | 1.55 | 1468.8 | 14.66
328.15 K | – | – | 1.75 | 1464.4 | 12.85
333.15 K | – | – | 1.96 | 1459.9 | 11.34
338.15 K | – | – | 2.17 | 1455.1 | 10.1
343.15 K | – | – | – | – | 9.07
348.15 K | – | – | – | – | 8.19
353.15 K | – | – | – | – | 7.43
358.15 K | – | – | – | – | 6.76
363.15 K | – | – | – | – | 6.19
Crystal 1 | – | 291 | – | – | –
Crystal 2 | – | 278.2 | – | – | –

CCCC[n+]1ccc(C)cc1.O=S(=O)([N-]S(=O)(=O)C(F)(F)F)C(F)(F)F
Conditions | Glass transition temperature [°C] | Triple point temperature [K] | electrical conductivity [S/m] | mass density [kg/m3] | viscosity [mPa·s]
– | -78 | – | – | – | –
278.15 K | – | – | 0.124 | – | –
283.15 K | – | – | 0.166 | 1432.8 | –
288.15 K | – | – | 0.215 | 1428.4 | –
293.15 K | – | – | 0.273 | 1423.4 | –
298.15 K | – | – | 0.341 | 1418.7 | 55.14
303.15 K | – | – | 0.419 | 1414 | 44.2
308.15 K | – | – | 0.509 | 1409.3 | 35.85
313.15 K | – | – | 0.6 | 1404.7 | 29.61
318.15 K | – | – | 0.702 | 1400.2 | 24.77
323.15 K | – | – | 0.817 | 1395.8 | 20.85
328.15 K | – | – | 0.941 | 1391.3 | 17.86
333.15 K | – | – | 1.07 | 1386.9 | 15.37
338.15 K | – | – | 1.21 | 1382.5 | 13.42
343.15 K | – | – | – | – | 11.65
348.15 K | – | – | – | – | 10.15
353.15 K | – | – | – | – | 8.89
358.15 K | – | – | – | – | 7.94
Crystal 1 | – | 292.4 | – | – | –
Crystal 2 | – | 242.2 | – | – | –
Crystal 3 | – | 235.8 | – | – | –
